Measured values from article PMC7696940, “Effects of Rationally Designed Physico-Chemical Variants of the Peptide PuroA on Biocidal Activity towards Bacterial and Mammalian Cells” (International Journal of Molecular Sciences, 2020).
≈ marks a conversion by molar mass, not a printed value. Where no end group is shown, it is not given here.

Columns and labels:
[1] = tested on: porcine trypsin and proteinase K; assay: Proteases stability assay; assay type: in vitro ADME, porcine; Tritirachium album; conditions: 1000 µg peptide with 50 µg protease (20:1 w/w), porcine trypsin or proteinase K, PBS pH 7.4, 37 °C, 3 h; read-out activity of supernatant on E. coli and S. aureus; triplicate
Method: The effect of two well-studied proteases, porcine trypsin and proteinase K from Tritirachium album, on the activity of peptides was investigated as per Carmona et al.. Briefly, 1000 µg of a peptide was incubated with 50 µg of a protease (20:1 w/w) at 37 °C for 3 h in phosphate buffered saline PBS (pH 7.4). The enzyme activity was then terminated by heating (70 °C, 5 min) and the samples centrifuged at 12,000× g. The activity of the supernatant on E. coli and S. aureus was tested as above, in triplicate.

E. coli and S. aureus = assay: Salt tolerance (MICs under 0-150 mM NaCl, summary); assay type: cell-based, Escherichia coli; Staphylococcus aureus; design: key: Up to 50 mM: no effects on antibacterial activity up to 50 mM NaCl but increase in the MICs for E. coli and S. aureus at 100 mM NaCl; Intolerant: not resistant to salt effects even at 50 mM NaCl; Up to 150 mM: no effects on antibacterial activity up to 150 mM NaCl; conditions: MICs for E. coli and S. aureus in MHB with 0, 50, 100 or 150 mM NaCl
Method: (§1) The activity of peptides was determined against the Gram-positive Staphylococcus aureus (ATCC 25923), and the Gram-negative Escherichia coli (ATCC 25922) and Pseudomonas aeruginosa (ATCC 9027) bacteria. Selected peptides were also tested against two clinical isolates of methicillin-resistant Staphylococcus aureus (MRSA), M173525 and M180920, kindly provided by Dr P. B. Ward (Microbiology Department, Austin and Repatriation Medical Centre, Heidelberg West, Victoria, Australia). The Minimum inhibitory concentration (MIC) of peptides was determined by the microtitre broth dilution method, as described in Phillips et al.. Briefly, bacteria were grown in Mueller-Hinton Broth (MHB) at 37 °C overnight with shaking (200 rpm). The cultures were adjusted to 0.5 McFarland turbidity standard (approximately 1 × 10^8 colony forming units (CFU)/mL), then diluted 1:100 in MHB (1 × 10^6 CFU/mL). A total of 75 μL of these suspensions were mixed with 25 μL of peptide solutions (final concentrations 250 to 0.5 μg/mL) and the microtitre plates incubated overnight at 37 °C. Positive growth controls (inoculum and MHB, with no peptide) and sterility controls (0.01% glacial acetic) were also included. Post-incubations, the absorbance of cultures at 595 nm was measured using a microplate reader (POLARstar Omega, Germany). […] To evaluate salt sensitivity of peptides up to physiological levels (150 mM NaCl), overnight cultures of S. aureus and E. coli adjusted to 0.5 McFarland turbidity standard were diluted 1:100 in MHB containing 0, 50, 100 or 150 mM NaCl, and the MICs of peptides determined as above. All tests were conducted in triplicate. The results are shown as the mode of values obtained.

NIH-3T3 cells = assay: Cytotoxicity, MTT assay; assay type: cell-based, mouse; conditions: 24 h; for IC50 NIH-3T3: peptide up to 250 µg/mL, concentration causing 50% cell growth inhibition, mean of triplicate assays
Method: (§2) Cytotoxicity to human cervical carcinoma HeLa cells and mouse fibroblastic NIH-3T3 cells was determined using the MTT assay as per Scudiero et al. with minor modifications. The cells were maintained in Dulbecco’s Modified Eagle Medium (DMEM) with 10% foetal bovine serum (FBS) and 1% penicillin G in a humidified incubator (Heraeus Hera Cell incubator) at 37 °C with 5% CO2. They were seeded in 96-well microtiter plates at 1 × 10^4 cells/well and allowed to adhere for 24 h in the incubator. The medium was removed, and adherent cells were washed with PBS. Fresh media containing serially diluted peptides in PBS (final concentrations 4 to 250 µg/mL) were added and the cells incubated for 24 h. Cells without peptides were used as negative controls. Following incubations, the medium was removed, and adherent cells were washed with PBS. 150 µL of MTT (diluted to 0.33 mg/mL in DMEM) and the plates incubated for 3 h. The precipitated formazan was dissolved in 100 µL of DMSO and its absorbance measured at 570 nm. Cell viability was determined as: (OD570 nm peptide treated cells/(OD570 nm untreated cells) × 100. Positive cytotoxicity was defined as peptide concentration that causes 50% growth inhibition in a cell line (IC50). All tests were carried out in triplicate.

C. albicans FRR 5580 = assay type: cell-based, Candida albicans; conditions: PDB, overnight; mode of three independent experiments
Method: The assay was carried out as per Alfred et al.. Candida albicans (FRR 5580) was grown in potato dextrose broth (PDB; Difco-BD, Bergen County, NJ, USA) overnight at 30 °C with shaking (200 rpm) until exponential phase, then adjusted to 0.5 McFarland turbidity standard (approximately 1 × 10^6 cells/mL) and diluted 1:200 with PDB to 0.5 − 2 × 10^3 cells/mL. Peptides in 25 μL volumes were mixed with 75 μL of the yeast suspensions. The controls were included as above. The plates were incubated overnight and absorbance was recorded. All the tests were conducted in triplicate.

S. aureus ATCC25923 = assay type: cell-based, Staphylococcus aureus; conditions: MHB; for MIC S. aureus, No NaCl: 0 mM NaCl; for MIC S. aureus, No NaCl / MIC S. aureus, With 50mM NaCl / MIC S. aureus, With 100mM NaCl / MIC S. aureus, With 150mM NaCl: triplicate, mode; for MIC S. aureus ATCC25923: 37 °C overnight, A595, mode of three independent experiments
Method: as §1

HeLa cells = assay type: cell-based, human; conditions: MTT, 24 h, peptide up to 250 µg/mL; concentration causing 50% cell growth inhibition; mean of triplicate assays
Method: as §2

E. coli ATCC25922 = assay type: cell-based, Escherichia coli; conditions: MHB; for MIC E. coli, No NaCl: 0 mM NaCl; for MIC E. coli, No NaCl / MIC E. coli, With 50mM NaCl / MIC E. coli, With 100mM NaCl / MIC E. coli, With 150mM NaCl: triplicate, mode; for MIC E. coli ATCC25922: 37 °C overnight, A595, mode of three independent experiments
Method: as §1

P. aeruginosa ATCC9027 = assay type: cell-based, Pseudomonas aeruginosa; conditions: MHB, 37 °C overnight, A595; mode of three independent experiments
Method: as §1

Row | Compound | Protease Stability [1] | Salt Tolerance (E. coli and S. aureus) | IC50 NIH-3T3 (NIH-3T3 cells) | Cytotoxicity to NIH-3T3 mouse fibroblasts (in words) (NIH-3T3 cells; up to 250 µg/mL) | MIC C. albicans FRR 5580 (C. albicans FRR 5580) | MIC S. aureus, No NaCl (S. aureus ATCC25923) | MIC S. aureus, With 50mM NaCl (S. aureus ATCC25923) | MIC S. aureus, With 100mM NaCl (S. aureus ATCC25923) | MIC S. aureus, With 150mM NaCl (S. aureus ATCC25923) | MIC S. aureus ATCC25923 (S. aureus ATCC25923) | IC50 HeLa (HeLa cells) | MIC E. coli, No NaCl (E. coli ATCC25922) | MIC E. coli, With 50mM NaCl (E. coli ATCC25922) | MIC E. coli, With 100mM NaCl (E. coli ATCC25922) | MIC E. coli, With 150mM NaCl (E. coli ATCC25922) | MIC E. coli ATCC25922 (E. coli ATCC25922) | MIC P. aeruginosa ATCC9027 (P. aeruginosa ATCC9027)
1 | CC(C)[C@H](NC(=O)[C@@H]1CCCN1C(=O)[C@@H](N)Cc1ccccc1)C(=O)N[C@H](C(=O)N[C@@H](Cc1c[nH]c2ccccc12)C(=O)N[C@@H](CCCNC(=N)N)C(=O)N[C@@H](Cc1c[nH]c2ccccc12)C(=O)N[C@@H](Cc1c[nH]c2ccccc12)C(=O)N[C@@H](CCCCN)C(=O)N[C@@H](Cc1c[nH]c2ccccc12)C(=O)N[C@@H](Cc1c[nH]c2ccccc12)C(=O)N[C@@H](CCCCN)C(=O)NCC(=O)NCCCC[C@@H](NC(=O)CNC(=O)[C@H](CCCCN)NC(=O)[C@H](Cc1c[nH]c2ccccc12)NC(=O)[C@H](Cc1c[nH]c2ccccc12)NC(=O)[C@H](CCCCN)NC(=O)[C@H](Cc1c[nH]c2ccccc12)NC(=O)[C@H](Cc1c[nH]c2ccccc12)NC(=O)[C@H](CCCNC(=N)N)NC(=O)[C@H](Cc1c[nH]c2ccccc12)NC(=O)[C@@H](NC(=O)[C@@H](NC(=O)[C@@H]1CCCN1C(=O)[C@@H](N)Cc1ccccc1)C(C)C)[C@@H](C)O)C(N)=O)[C@@H](C)O [Di-PuroA] | Unstable | Intolerant |  |  |  |  |  |  |  |  |  |  |  |  |  |  | 
2 | CC(C)[C@H](NC(=O)[C@@H]1CCCN1C(=O)[C@@H](N)Cc1ccccc1)C(=O)N[C@H](C(=O)N[C@@H](Cc1c[nH]c2ccccc12)C(=O)N[C@@H](CCCNC(=N)N)C(=O)N[C@@H](Cc1c[nH]c2ccccc12)C(=O)N[C@@H](Cc1c[nH]c2ccccc12)C(=O)N[C@@H](CCCCN)C(=O)N[C@@H](Cc1c[nH]c2ccccc12)C(=O)N[C@@H](Cc1c[nH]c2ccccc12)C(=O)N[C@@H](CCCCN)C(=O)NCC(=O)O)[C@@H](C)O [PuroA-OH] | Unstable | Intolerant | >250 µg/mL | no cytotoxicity | 250 µg/mL (≈ 134 µM) | 64 µg/mL (≈ 34.3 µM) | 125 µg/mL (≈ 67.1 µM) | > 250 µg/mL | > 250 µg/mL | 64 µg/mL (≈ 34.3 µM) | >250 µg/mL | 32 µg/mL (≈ 17.2 µM) | 64 µg/mL (≈ 34.3 µM) | > 250 µg/mL | > 250 µg/mL | 32 µg/mL (≈ 17.2 µM) | 125 µg/mL (≈ 67.1 µM)
3 | RKRWWRWWKWWKR-NH2 [dP1, diastereomeric counterpart of P1] |  | Up to 150 mM | 250 µg/mL |  | 64 µg/mL | 16 µg/mL | 16 µg/mL | 16 µg/mL | 16 µg/mL |  | 125 µg/mL | 16 µg/mL | 16 µg/mL | 16 µg/mL | 16 µg/mL |  | 16 µg/mL
4 | RWWKWW-NH2 [Peptide R6] | Unstable | Intolerant | 250 µg/mL |  | 64 µg/mL | 16 µg/mL | 32 µg/mL | 250 µg/mL | > 250 µg/mL | 16 µg/mL | >250 µg/mL | 32 µg/mL | 64 µg/mL | 250 µg/mL | > 250 µg/mL | 32 µg/mL | 32 µg/mL
5 | RWWKWWK-NH2 [Peptide R7] | Unstable | Intolerant | 250 µg/mL |  | 64 µg/mL | 16 µg/mL | 32 µg/mL | 250 µg/mL | > 250 µg/mL | 16 µg/mL | >250 µg/mL | 8 µg/mL | 32 µg/mL | 250 µg/mL | > 250 µg/mL | 8 µg/mL | 32 µg/mL
6 | WWRWWKWW-NH2 [dWW, diastereomeric counterpart of WW] |  | Up to 150 mM | 250 µg/mL |  | 64 µg/mL | 8 µg/mL | 8 µg/mL | 8 µg/mL | 8 µg/mL | 8 µg/mL | 125 µg/mL | 8 µg/mL | 8 µg/mL | 8 µg/mL | 8 µg/mL | 8 µg/mL | 32 µg/mL
